# Tests used:
# Settings in all cases: acetyl-histone H4 peptide
# BRD4 (His-Brd4(44-477)) = BRD4 (His-Brd4(44-477)) (Homo sapiens (Human), UniProt O60885); assay: TR-FRET in-vitro binding assay for BRD4
# Method: All assays were performed in 384 well microtiter plates. Each assay plate contained 8-point serial dilutions for 40 test compounds, plus 16 high- and 16 low controls. Liquid handling and incubation steps were done on an Innovadyne Nanodrop Express equipped with a robotic arm (Thermo CatX, Perkin Elmer/Caliper Twister II) and an incubator (Liconic STX40, Thermo Cytomat 2C450). The assay plates were prepared by addition of 50 nl per well of compound solution in 90% DMSO HummingBird nanodispenser (Zinsser Analytic). […] Reactions were incubated at 30° C. for 35 minutes. […] After 35 minutes incubation at 30° C., plates were measured in a Perkin Elmer EnVision multilabel reader.
# (§1) Test compounds were dissolved in DMSO (10 mM) and transferred into 1.4 mL flat bottom or V-shaped Matrix tubes carrying a unique 2D matrix. The stock solutions were stored at […] if not used immediately. For the test procedure the vials were defrosted and identified by a scanner whereby a working sheet was generated that guided the subsequent working steps. Compound dilutions were made in 96 well plates. This format enabled the assay of maximally 40 individual test compounds at 8 concentrations (single points) including 4 reference compounds, if desired (known BET inhibitors from the prior art, for this and other assays of the type disclosed herein). The dilution protocol included the production of “pre-dilution plates”, “master plates” and “assay plates”.
# (§2) Pre-dilution plates: 96 polypropylene well plates were used as pre-dilution plates. A total of 4 pre-dilution plates were prepared including 10 test compounds each on the plate positions A1-A10, one standard compound at A11 and one DMSO control at A12. All dilution steps were done on a HamiltonSTAR robot. […] These plates were used directly for the assay which was performed in a total volume of 13.55 μL. […] Cell Growth Inhibition Assay
# BRD2 (His-Brd2(60-472)) = BRD2 (His-Brd2(60-472)) (Homo sapiens (Human), UniProt P25440); assay: TR-FRET in-vitro binding assay for BRD2
# Method: All assays were performed in 384 well microtiter plates. Each assay plate contained 8-point serial dilutions for 40 test compounds, plus 16 high- and 16 low controls. Liquid handling and incubation steps were done on an Innovadyne Nanodrop Express equipped with a robotic arm (Thermo CatX, Perkin Elmer/Caliper Twister II) and an incubator (Liconic STX40, Thermo Cytomat 2C450). The assay plates were prepared by addition of 50 nl per well of compound solution in 90% DMSO HummingBird nanodispenser (Zinsser Analytic). The assay was started by stepwise addition of 4.5 μl per well of bromo domain protein (50 mM HEPES, pH 7.5, 0.005% Tween20, 0.1% BSA, 50 mM NaCl, 45 nM His-Brd2(60-472) or 45 nM His-Brd3(20-477) or 45 nM His-Brd4(44-477) all proteins produced in-house) and 4.5 μl per well of peptide solution (50 mM HEPES, pH 7.5, 0.005% Tween20, 0.1% BSA, 50 mM NaCl, 60 nM acetyl-histone H4 (AcK 5, 8, 12, 16) (Biosyntan GmbH)). Reactions were incubated at 30° C. for 35 minutes. Subsequently 4.5 μl per well detection mix (50 mM HEPES, pH 7.5, 0.005% Tween20, 0.1% BSA, 50 mM NaCl, 3 nM Eu-labeled anti-His6 antibody, 21 nM streptavidin-allophycocyanin) were added. After 35 minutes incubation at 30° C., plates were measured in a Perkin Elmer EnVision multilabel reader. Concentrations causing 50% inhibition (1050) values were determined from percent inhibition values at different compound concentrations by non-linear regression analysis.
# as §1
# Pre-dilution plates: 96 polypropylene well plates were used as pre-dilution plates. A total of 4 pre-dilution plates were prepared including 10 test compounds each on the plate positions A1-A10, one standard compound at A11 and one DMSO control at A12. All dilution steps were done on a HamiltonSTAR robot. Master plates: 30 μL of individual compound dilutions including standard compound and controls of the 4 “pre-dilution plates” were transferred into a 384 “master plate” including the following concentrations 10000, 3003, 1000, 300, 100, 30, 10 and 3 μM, respectively in 90% of DMSO. Assay plates: Identical “assay plates” were then prepared by pipetting 50 nL each of compound dilutions of the “master plates” into 384-well “assay plates” by means of a HummingBird 384-channel dispenser. These plates were used directly for the assay which was performed in a total volume of 13.55 μL. This led to a final compound concentration of 37, 11, 3.7, 1.1, 0.37, 0.11, 0.037 and 0.011 μM and a final DMSO concentration of 0.37% in the assay. Cell Growth Inhibition Assay
# [1] = target: CREBBP bromodomain (His-CREBBP (1081-1197)) (Homo sapiens (Human), UniProt Q92793); assay: AlphaScreen in-vitro binding assay for CREBBP
# Method: In order to assess bromodomain selectivity, we set up a binding assay using the bromodomain encoded by the CREBBP gene. […] Reactions were incubated at 30° C. for 35 minutes. Subsequently 4.5 μl per well detection mix (50 mM HEPES, pH 7.5, 0.005% Tween20, 0.02% BSA, 150 mM NaCl, 45 μg/ml Ni-chelate acceptor beads, 45 μg/ml streptavidin-donor beads) (Perkin Elmer)) were added. After 60 minutes incubation at room temperature, plates were measured in a Perkin Elmer EnVision multilabel reader. IC50 values were determined from percent inhibition values at different compound concentrations by non-linear regression analysis.
# as §1, §2
# BRD2 (His-Brd2(60-472)), sequence (P25440 60-472, species assumed): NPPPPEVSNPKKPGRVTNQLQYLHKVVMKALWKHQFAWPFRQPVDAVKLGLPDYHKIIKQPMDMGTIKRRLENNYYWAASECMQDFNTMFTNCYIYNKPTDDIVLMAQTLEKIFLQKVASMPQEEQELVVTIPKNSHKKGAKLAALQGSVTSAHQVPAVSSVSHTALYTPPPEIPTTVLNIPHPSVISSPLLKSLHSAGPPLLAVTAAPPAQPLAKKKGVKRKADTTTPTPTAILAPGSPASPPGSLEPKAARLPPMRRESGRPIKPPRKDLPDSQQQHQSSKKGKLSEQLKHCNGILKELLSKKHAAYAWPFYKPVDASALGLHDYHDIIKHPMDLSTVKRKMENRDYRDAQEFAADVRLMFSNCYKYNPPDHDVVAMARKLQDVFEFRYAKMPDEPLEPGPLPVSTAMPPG
# CREBBP bromodomain (His-CREBBP (1081-1197)), sequence (Q92793 1081-1197): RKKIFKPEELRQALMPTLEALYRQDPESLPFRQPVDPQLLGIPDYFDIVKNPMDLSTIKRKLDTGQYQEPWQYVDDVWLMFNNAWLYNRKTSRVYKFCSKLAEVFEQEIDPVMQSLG
SMILES,IC50 (BRD4 (His-Brd4(44-477))) [nM],IC50 (BRD2 (His-Brd2(60-472))) [nM],IC50 [1] [nM]
CNC1=C(C(=N)C2CC2)C(=O)N(c2cc(C)c(=O)n(C)c2)[C@@H]1c1ccc(Cl)cc1 [Example 2],16,22,1200
"Cc1[nH]nc2c1C(=O)N(c1cc(Cl)c(=O)n(C)c1)C2c1ccc(Cl)cc1 (stereo not shown) [Example 6, 5-(5-chloro-1-methyl-6-oxo-1,6-dihydropyridin-3-yl)-6-(4-chlorophenyl)-3-methyl-5,6-dihydropyrrolo[3,4-c]pyrazol-4(2H)-one]",120,94,4100
"COc1ncccc1-n1nc2c(c1C)C(=O)N(c1cc(Cl)c(=O)n(C)c1)C2c1ccc(Cl)cc1 (stereo not shown) [Example 7b, 5-(5-chloro-1-methyl-6-oxo-1,6-dihydropyridin-3-yl)-6-(4-chlorophenyl)-2-(2-methoxypyridin-3-yl)-3-methyl-5,6-dihydropyrrolo[3,4-c]pyrazol-4(2H)-one]",41,32,1900
"COc1ncc(-n2nc(C)c3c2C(c2ccc(Cl)cc2)N(c2cc(Cl)c(=O)n(C)c2)C3=O)cn1 (stereo not shown) [Example 8a, 5-(5-chloro-1-methyl-6-oxo-1,6-dihydropyridin-3-yl)-6-(4-chlorophenyl)-1-(2-methoxypyrimidin-5-yl)-3-methyl-5,6-dihydropyrrolo[3,4-c]pyrazol-4(1H)-one]",170,120,> 37000
"COc1ncc(-n2nc3c(c2C)C(=O)N(c2cc(Cl)c(=O)n(C)c2)C3c2ccc(Cl)cc2)cn1 (stereo not shown) [Example 8b, 5-(5-chloro-1-methyl-6-oxo-1,6-dihydropyridin-3-yl)-6-(4-chlorophenyl)-2-(2-methoxypyrimidin-5-yl)-3-methyl-5,6-dihydropyrrolo[3,4-c]pyrazol-4(2H)-one]",210,160,5400
"Cc1nn(C(C)C)c2c1C(=O)N(c1cc(C)c(=O)n(C)c1)C2c1ccc(Cl)cc1 (stereo not shown) [Example 12, 6-(4-chlorophenyl)-5-(1,5-dimethyl-6-oxo-1,6-dihydropyridin-3-yl)-1-isopropyl-3-methyl-5,6-dihydropyrrolo[3,4-c]pyrazol-4(1H)-one]",67,52,1400
"COc1ccc(-n2nc(C)c3c2C(c2ccc(Cl)cc2)N(c2cc(C)c(=O)n(C)c2)C3=O)cc1 (stereo not shown) [Example 13, 6-(4-chlorophenyl)-5-(1,5-dimethyl-6-oxo-1,6-dihydropyridin-3-yl)-1-(4-methoxyphenyl)-3-methyl-5,6-dihydropyrrolo[3,4-c]pyrazol-4(1H)-one]",103,97,2200
"COc1ncc(-n2nc3c(c2C)C(=O)N(c2cc(C)c(=O)n(C)c2)C3c2ccc(Cl)cc2)c(OC)n1 (stereo not shown) [Example 14, 6-(4-chlorophenyl)-2-(2,4-dimethoxypyrimidin-5-yl)-5-(1,5-dimethyl-6-oxo-1,6-dihydropyridin-3-yl)-3-methyl-5,6-dihydropyrrolo[3,4-c]pyrazol-4(2H)-one]",100,94,5100
"COc1ncccc1-c1nn(C)c2c1C(=O)N(c1cc(C)c(=O)n(C)c1)C2c1ccc(Cl)cc1 (stereo not shown) [Example 15, 6-(4-chlorophenyl)-5-(1,5-dimethyl-6-oxo-1,6-dihydropyridin-3-yl)-3-(2-methoxypyridin-3-yl)-1-methyl-5,6-dihydropyrrolo[3,4-c]pyrazol-4(1H)-one]",62.5,70,1000
"COc1ncccc1-c1nn(C)c2c1C(=O)N(c1cc(C)c(=O)n(C)c1)[C@@H]2c1ccc(Cl)cc1 [Example 16, (R)-6-(4-chlorophenyl)-5-(1,5-dimethyl-6-oxo-1,6-dihydropyridin-3-yl)-3-(2-methoxypyridin-3-yl)-1-methyl-5,6-dihydropyrrolo[3,4-c]pyrazol-4(1H)-one]",56,48.5,545
"COc1ccc(-n2nc(C)c3c2C(c2ccc(Cl)cc2)N(c2cc(C)c(=O)n(C)c2)C3=O)cn1 (stereo not shown) [Example 20b, 6-(4-chlorophenyl)-5-(1,5-dimethyl-6-oxo-1,6-dihydropyridin-3-yl)-1-(6-methoxypyridin-3-yl)-3-methyl-5,6-dihydropyrrolo[3,4-c]pyrazol-4(1H)-one]",56,49,

# Now from value to molecule:
IC50 (BRD4 (His-Brd4(44-477))) [nM],IC50 (BRD2 (His-Brd2(60-472))) [nM],IC50 [1] [nM],SMILES
28,32,1400,"Cc1cc(N2C(=O)c3c(C4CC4)nn(C)c3C2c2ccc(Cl)cc2)cn(C)c1=O (stereo not shown) [Example 1, 6-(4-chlorophenyl)-3-cyclopropyl-5-(1,5-dimethyl-6-oxo-1,6-dihydropyridin-3-yl)-1-methyl-5,6-dihydropyrrolo[3,4-c]pyrazol-4(1H)-one]"
43,42,,"Cc1cc(N2C(=O)c3c(C4CC4)nn(CCO)c3C2c2ccc(Cl)cc2)cn(C)c1=O (stereo not shown) [Example 3, 6-(4-chlorophenyl)-3-cyclopropyl-5-(1,5-dimethyl-6-oxo-1,6-dihydropyridin-3-yl)-1-(2-hydroxyethyl)-5,6-dihydropyrrolo[3,4-c]pyrazol-4(1H)-one]"
14,15,3000,"COCCn1nc(C2CC2)c2c1C(c1ccc(Cl)cc1)N(c1cc(C)c(=O)n(C)c1)C2=O (stereo not shown) [Example 4, 6-(4-chlorophenyl)-3-cyclopropyl-5-(1,5-dimethyl-6-oxo-1,6-dihydropyridin-3-yl)-1-(2-methoxyethyl)-5,6-dihydropyrrolo[3,4-c]pyrazol-4(1H)-one]"
96,74,5000,"Cc1cc(N2C(=O)c3c(C4CC4)nn(-c4ccnn4C)c3C2c2ccc(Cl)cc2)cn(C)c1=O (stereo not shown) [Example 5, 6-(4-chlorophenyl)-3-cyclopropyl-5-(1,5-dimethyl-6-oxo-1,6-dihydropyridin-3-yl)-1-(1-methyl-1H-pyrazol-5-yl)-5,6-dihydropyrrolo[3,4-c]pyrazol-4(1H)-one]"
89,84,3000,"Cc1nn(C)c2c1C(=O)N(c1cc(C)c(=O)n(C)c1)C2c1ccc(Cl)cc1 (stereo not shown) [Example 10, 6-(4-chlorophenyl)-5-(1,5-dimethyl-6-oxo-1,6-dihydropyridin-3-yl)-1,3-dimethyl-5,6-dihydropyrrolo[3,4-c]pyrazol-4(1H)-one]"
40,38,1900,"Cc1nn(C2CC2)c2c1C(=O)N(c1cc(C)c(=O)n(C)c1)C2c1ccc(Cl)cc1 (stereo not shown) [Example 11, 6-(4-chlorophenyl)-1-cyclopropyl-5-(1,5-dimethyl-6-oxo-1,6-dihydropyridin-3-yl)-3-methyl-5,6-dihydropyrrolo[3,4-c]pyrazol-4(1H)-one]"
